Laboratory results taken from patent US4443448A, “Indane derivatives, pharmaceutical compositions thereof and method of preparation” (priority 1980, dated 1984).
Read-outs that look alike come from different tables or passages of the source.

Assays:
[1] = in vivo; details: iv
[2] = test system: amphetamine; experiment: Amphetamine antagonism in rats; assay type: in vivo; details: Rattus norvegicus, po, rats, p.o., amphetamine 10 mg/kg base i.v.; read-out: Amphetamine antag. ED50 p.o.
Protocol: Amphetamine antagonism (ED50 mg/kg i.p.)
(§1) Perspex observation cages without bottom and lid, consisting of 5 sections each measuring 12×25×30 cm.
The test substance is given p.o. in a reasonable dose based on the determined LD50. Two or 24 hours later an intravaneous injection of amphetamine sulphate 13.6 mg/kg (10 mg/kg amphetamine base) is given, after which the rats are placed individually in the cages. The cages are placed on white corrugated paper. Five rats are used for each dose level. Observations are made after 55 minutes and 65 minutes-observation time: 1 minute. The animals are observed for stereotypy (movements of the head, compulsive gnawing). […] If the compound has full antagonistic effect another group of rats is used at a lower dose. […] The result is stated as fractions: 0/5, 1/5, 2/5, 3/5, 4/5 and 5/5, where 0, 1, 2, 3, 4 and 5 indicate the number of rats which have not shown stereotypy at the dose in question. The results are calculated as ED50 in mg/kg.

[3] = in vivo; set-up: species or system rats; details: for Ratio catalep./Amphet.: catalepsy ED50 / amphetamine antagonism ED50; for ED50: rat, in vivo, po, rats, p.o., strongest effect within first 6 hours, read-out: Catalep. (catalepsy wire mesh, rat, max, ED50)
Protocol: A vertical wire netting (50 cm×49 cm). The meshes (openings) of the netting are square (1 cm×1 cm). The wire diameter is 2 mm.
The animals are labeled and used in groups of five. The test substance is administered orally (p.o) at 4 dose levels selected from the fixed dose scale.
The animals are placed in the middle of the vertical wire netting 60, 120, 180, 240, 300 and 360 minutes after administration of the test compound. The animals are considered cataleptic when they remain immobile during a period of 15 seconds.
This cataleptic reaction is designated +. If the rats are "atonic" and passively slide down the wire mesh they are considered not cataleptic. If the animals climb up and down the wire mesh they are nor cataleptic.
In both situations the designation--is used.

[4] = test system: methylphenidate; experiment: Methylphenidate antagonism in mice; assay type: in vivo; details: for ED50: Mus musculus, ip
Protocol: Methylphenidate antagonism (ED50 mg/kg i.p.)
as §1
3×2 mice are used for each dose level. Two or 24 hours after injection of test substance, methylphenidate, 60 mg/kg, is injected s.c. After administration of methylphenidate the mice are placed in the observation cages, 2 in each cage, where they remain for exactly 1 hour. The cages were placed on corrugated paper, the corrugations facing upwards. It is examined whether the mice have been biting the corrugated paper or not. […] If one or more of the control pairs have not been biting, the test has to be repeated on a new set of mice.
The result is stated in fractions: 0/3, 1/3, 2/3 and 3/3 where 0, 1, 2 and 3 are the number of pairs which have not been biting on receipt of the dose in question.

[5] = Mouse grid shock (analgesia); assay type: in vivo; details: mice, minimal effective dose, in mg/kg
Protocol: The mouse grid consists of a perspex cage with wire grid bottom and a perspex lid, on which is placed a microphone sensitive to the frequency of a mouse squeak. A stimulator with motordriven potentiometer applies a sequence of square wave impulses of continuously increasing milliamperage to the grid. Frequency of impulses 20 cycles/sec., duration 5 msec. Milliamperage is recorded on a digital amperemeter connected to the stimulator. Activation of the microphone by a mouse-squeak cuts off the current and the final milliamperage appears on the meter.
Five mice are used for each dose level. Each mouse serves as its own control.
Prior to the administration of test substance the animals are placed on the grid one at a time, and the pain threshold is determined by increasing the current intensity until the mouse squeaks. The pain threshold may be read on the milliamperemeter. Fifteen minutes and 30 minutes after administration of test substance the mice are tested again and the pain thresholds recorded.
Analgesic effect is present, when the pain threshold is increased over the pre-dosing value (control value). The results are stated as % increase in pain threshold calculated on the basis of the control value.
The registration can also be done as an on-line procedure. In this case the punching instruction and punching cards will be provided automatically and the results will be registered as a minimal effective dose (MED) determined after van der Waerdens X-test.

[6] = 2 h, read-out: MePh antag. ED50 2 hr i.p., mice, test substance i.p., 2 hr before methylphenidate 60 mg/kg s.c.
[7] = read-out: MePh antag. ED50 2 hr i.p., mice, test substance i.p., 2 hr before methylphenidate 60 mg/kg s.c.

OCCN1CCN([C@@H]2C[C@@H](c3ccc(F)cc3)c3ccc(F)cc32)CC1 (relative stereo) [Lu 13-117, 1-(2-hydroxyethyl)-4-(3-(4'-fluorophenyl)-6-fluoro-1-indanyl)piperazine]
LD50 [1]: 113 mg/kg | ED50 [2]: 6 mg/kg | Ratio catalep./Amphet. [3]: 13 | ED50 [3]: 79 mg/kg | ED50 [4, 6]: 3 mg/kg | MED Grid Shock [5]: 0.63

CN1CCN([C@@H]2C[C@@H](c3ccccc3)c3ccc(Cl)cc32)CC1 (relative stereo) [Lu 14-063]
LD50 [1]: 80 mg/kg | ED50 [2]: > 40 mg/kg | ED50 [3]: > 40 mg/kg | ED50 [4, 6]: 29 mg/kg | MED Grid Shock [5]: 5

CN1CCN([C@@H]2C[C@H](c3ccc(F)cc3)c3ccc(Cl)cc32)CC1 (relative stereo) [Lu 14-069]
LD50 [1]: 65 mg/kg | ED50 [2]: > 20 mg/kg | ED50 [3]: > 40 mg/kg | ED50 [4, 6]: 5.7 mg/kg | MED Grid Shock [5]: 5

Cc1ccc2c(c1)[C@H](N1CCN(C)CC1)C[C@H]2c1ccc(F)cc1 (relative stereo) [Lu 17-048]
LD50 [1]: 80 mg/kg | ED50 [2]: 6.7 mg/kg | Ratio catalep./Amphet. [3]: 0.7 | ED50 [3]: 4.8 mg/kg | ED50 [4, 6]: 0.6 mg/kg | MED Grid Shock [5]: 0.16

Cc1ccc2c(c1)[C@H](N1CCN(CCO)CC1)C[C@H]2c1ccc(F)cc1 (relative stereo) [Lu 17-050]
LD50 [1]: 80 mg/kg | ED50 [2]: 9.4 mg/kg | Ratio catalep./Amphet. [3]: 0.8 | ED50 [3]: 7.7 mg/kg | ED50 [4, 6]: 3.4 mg/kg | MED Grid Shock [5]: 0.63

CSc1ccc2c(c1)[C@H](N1CCN(CCO)CC1)C[C@H]2c1ccc(F)cc1 (relative stereo) [Lu 17-053]
LD50 [1]: 68 mg/kg | ED50 [2]: 9.1 mg/kg | ED50 [3]: 6.2 mg/kg | ED50 [4, 6]: 1.3 mg/kg | MED Grid Shock [5]: 2.5

CSc1ccc2c(c1)[C@H](N1CCN(C)CC1)C[C@H]2c1ccc(F)cc1 (relative stereo) [Lu 17-055]
LD50 [1]: 68 mg/kg | ED50 [2]: 10 mg/kg | Ratio catalep./Amphet. [3]: 0.7 | ED50 [3]: 7.2 mg/kg | ED50 [4, 6]: 1.2 mg/kg | MED Grid Shock [5]: 5

CSc1ccc2c(c1)[C@H](N1CCN(C)CC1)C[C@@H]2c1ccc(F)cc1 (relative stereo) [Lu 17-056]
ED50 [4, 6]: 20 mg/kg | MED Grid Shock [5]: 5

O[C@H]1CC[C@H](CN2CCN(C3CC(c4ccc(F)cc4)c4ccc(F)cc43)CC2)CC1 (relative stereo) [Lu 17-059]
LD50 [1]: 94 mg/kg | ED50 [2]: 28 mg/kg | Ratio catalep./Amphet. [3]: > 1.4 | ED50 [3]: > 40 mg/kg | ED50 [4, 6]: 4.3 mg/kg | MED Grid Shock [5]: 5

OCCN1CCN([C@@H]2C[C@@H](c3ccccc3)c3ccccc32)CC1 (relative stereo) [Lu 17-061]
ED50 [4, 6]: > 40 mg/kg | MED Grid Shock [5]: 10

OCCN1CCN([C@@H]2C[C@@H](c3ccc(F)cc3)c3cc(F)ccc32)CC1 (relative stereo) [Lu 17-075]
LD50 [1]: 80 mg/kg | ED50 [2]: > 40 mg/kg | ED50 [3]: > 40 mg/kg | ED50 [4, 6]: 6 mg/kg | MED Grid Shock [5]: 2.5

CN1CCN([C@@H]2C[C@@H](c3ccccc3)c3ccccc32)CC1 (relative stereo) [Lu 17-091]
ED50 [4, 6]: > 40 mg/kg | MED Grid Shock [5]: 10

OCCN1CCN([C@@H]2C[C@@H](c3ccc(F)cc3)c3cc(Cl)ccc32)CC1 (relative stereo) [Lu 17-116]
ED50 [4, 6]: > 40 mg/kg | MED Grid Shock [5]: 10

OCCN1CCN([C@@H]2C[C@H](c3ccc(F)cc3)c3ccc(Cl)cc32)CC1 (relative stereo) [Lu 17-120]
ED50 [3]: > 20 mg/kg | ED50 [4, 6]: 3.2 mg/kg | MED Grid Shock [5]: 2.5

CN1CCN([C@@H]2C[C@@H](c3ccc(F)cc3)c3ccc(Cl)cc32)CC1 (relative stereo) [Lu 17-121]
LD50 [1]: 68 mg/kg | ED50 [2]: 10 mg/kg | Ratio catalep./Amphet. [3]: 0.3 | ED50 [3]: 3 mg/kg | ED50 [4, 6]: 2 mg/kg | MED Grid Shock [5]: 0.63

OCCN1CCN([C@@H]2C[C@H](c3ccc(F)cc3)c3ccccc32)CC1 (relative stereo) [Lu 17-124]
ED50 [4, 6]: > 40 mg/kg | MED Grid Shock [5]: 5

O=C1OCCN1CCN1CCN(C2CC(c3ccc(F)cc3)c3ccc(F)cc32)CC1 (stereo not drawn) [Lu 17-039]
LD50 [1]: 113 mg/kg | ED50 [2]: 51 mg/kg | ED50 [3]: > 80 mg/kg | ED50 [4, 6]: 9.1 mg/kg

O=C1NCCN1CCN1CCN(C2CC(c3ccc(F)cc3)c3ccc(F)cc32)CC1 (stereo not drawn) [Lu 17-045]
ED50 [2]: > 80 mg/kg | ED50 [3]: > 80 mg/kg | ED50 [4, 6]: > 40 mg/kg | MED Grid Shock [5]: 2.5

CN1CCN(C2CC(c3ccc(F)cc3)c3cc(F)ccc32)CC1 (stereo not drawn) [Lu 17-071]
ED50 [3]: 31 mg/kg | ED50 [4, 6]: > 40 mg/kg | MED Grid Shock [5]: 10

Cc1ccc2c(c1)C(N1CCN(CC3CC3)CC1)CC2c1ccc(F)cc1 (stereo not drawn) [Lu 17-130]
ED50 [2]: > 40 mg/kg | ED50 [3]: > 40 mg/kg | ED50 [4, 6]: 5 mg/kg | MED Grid Shock [5]: 5

O=C(CCCN1CCN(C2CC(c3ccc(F)cc3)c3ccc(F)cc32)CC1)c1ccc(F)cc1 (stereo not drawn) [Lu 17-145]
ED50 [4, 6]: > 40 mg/kg | MED Grid Shock [5]: 5

CS(=O)(=O)c1ccc2c(c1)C(N1CCN(CCO)CC1)CC2c1ccc(F)cc1 (stereo not drawn) [Lu 18-041]
LD50 [1]: > 160 mg/kg | ED50 [4, 6]: 10 mg/kg | MED Grid Shock [5]: 5

OCC(CO)N1CCN(C2CC(c3ccc(F)cc3)c3ccc(F)cc32)CC1 (stereo not drawn) [Lu 18-134, 1-(1,3-dihydroxy-2-propy)-4-(3-(4'-fluorophenyl)-6-fluoro-1-indanyl)piperazine]
ED50 [2]: 11.7 mg/kg | Ratio catalep./Amphet. [3]: 4.9 | ED50 [3]: 57 mg/kg | ED50 [4, 6]: 1.9 mg/kg | MED Grid Shock [5]: < 5

Fc1ccc(C2CC(N3CCN(CC4CC4)CC3)c3cc(F)ccc32)cc1 (stereo not drawn) [Lu 18-157, 1-cyclopropylmethyl-4-(3-(4'-fluorophenyl)-6-fluoro-1-indanyl)piperazine]
LD50 [1]: 68 mg/kg | ED50 [4, 6]: 5 mg/kg

Fc1ccc(C2CC(N3CCN(CCc4ccccc4)CC3)c3cc(F)ccc32)cc1 (stereo not drawn) [Lu 18-159]
LD50 [1]: 40 mg/kg | ED50 [4, 6]: 15 mg/kg

Fc1ccc(C2CC(N3CCN(CC=Cc4ccccc4)CC3)c3cc(F)ccc32)cc1 (stereo not drawn) [Lu 18-162, 1-(3-phenyl-2-propenyl)-4-(3-(4'-fluorophenyl)-6-fluoro-1-indanyl)piperazine]
ED50 [4, 6]: 29 mg/kg

OCCCCN1CCN(C2CC(c3ccc(F)cc3)c3ccc(C(F)(F)F)cc32)CC1 (stereo not drawn) [Lu 18-182]
LD50 [1]: 56 mg/kg | ED50 [2]: 0.2 mg/kg | ED50 [3]: 0.2 mg/kg | ED50 [4, 6]: 0.2 mg/kg

OCC(CO)N1CCN(C2CC(c3ccc(F)cc3)c3ccc(C(F)(F)F)cc32)CC1 (stereo not drawn) [Lu 18-185]
ED50 [2]: 0.3 mg/kg | ED50 [3]: 0.3 mg/kg | ED50 [4, 6]: 0.2 mg/kg

COc1ccc2c3c1O[C@H]1[C@@H](O)C=C[C@H]4[C@@H](C2)N(C)CC[C@@]341 [codeine, reference compound]
LD50 [1]: 110 mg/kg | ED50 [4, 7]: > 20 mg/kg | MED Grid Shock [5]: 20

CCC(=O)O[C@](Cc1ccccc1)(c1ccccc1)[C@H](C)CN(C)C [dextropropoxyphene, reference compound]
LD50 [1]: 34 mg/kg | ED50 [4, 7]: > 20 mg/kg | MED Grid Shock [5]: 20

CN1CC[C@]23c4c5ccc(O)c4O[C@H]2[C@@H](O)C=C[C@H]3[C@H]1C5 [morfine, reference compound]
MePh antag. ED50 2 hr i.p. ([4]; mice, test substance i.p., 2 hr before methylphenidate 60 mg/kg s.c.): > 40 mg/kg | MED Grid Shock [5]: 2.5
